In general, IC50 refers to the concentration that inhibits the measured activity by half. By MRT is commonly meant a mean duration of stay, worked out from the concentration-time curve. The term Tmax denotes the time at which the peak concentration occurs.

Where only a bound is given, the exact number is not on record here.

2 molecules from patent US20260242320A1, “USE OF CANNABIDIOL DERIVATIVE IN PREPARATION OF MEDICAMENT” (priority 2023, published 2026) can be followed below.

The subject of series [1] is LPS-induced proinflammatory factor nitric oxide (NO) in immunocompetent BV-2 cells. Put plainly: NO assay: inhibition of LPS-induced NO overproduction in BV-2 cells. It is filed as cell-based. The conditions noted are these: Mus musculus; BV-2 cells, LPS 200 ng/mL, 24 h; read-out: Antineuroinflammatory activity (IC50 inhibiting LPS-induced NO). The protocol: BV-2 cells were seeded at a density of 5×10^4 cells per milliliter in 96-well plates. After 24 h incubation, the media was removed and changed to DMEM without FBS and penicillin-streptomycin. LPS (200 ng/mL) and different concentrations of compounds were added. After 24 h treatment, 100 μL of media was transferred to flat black 96-well micro fluor plates, and then, 10 μL of 0.05 mg/mL 2,3-diaminonaphthalene was added and incubated in the dark for 15 min. 5 μL of NaOH (3 M) was subsequently added to each well to quench the reaction. NO inhibition ratio was analyzed by a SYNERGY H1 Microplate Reader (BioTek Instruments, Carlsbad, CA, USA) with excitation at 360 nm and emission at 430 nm. The fluorescence value of the LPS-treated group was set as 100%.

The next series concerns BV-2 cellular viability. Put plainly: Cell viability / cytotoxicity by crystal violet staining. It is filed as cell-based. The conditions noted are these: Mus musculus, BV-2, read-out: Cellular toxicity (IC50 inhibiting BV-2 cellular viability). How it is done: 100 μL of culture medium were transferred to a black 96-well plate for later use. Following removal of old culture medium, 100 μL of 4% paraformaldehyde was added for fixation. Fixation was performed for 5 minutes. Paraformaldehyde was then removed, and 100 μL of 0.05% crystal violet was added. The resultant mixture was incubated for 15 minutes, after which time crystal violet was removed and the mixture was slowly rinsed with water three times. Next, 150 μL of ethanol was added, and the mixture was incubated for 15 minutes. After incubation, the absorbance was measured at 540 nm using a spectrophotometer. Viability (%)=100× Fluorescence values of the dosing group/Fluorescence values of the blank group.
Cell viability was determined by crystal violet staining. Briefly, BV-2 cells were treated as indicated in the NO assay. The media was removed, and then 4% paraformaldehyde was added to fix the cells for 5 min. Cells were stained with 100 μL 0.05% crystal violet for 15 min and washed with water 2 times. Next, 150 μL of ethanol was added to each well, and the plate was incubated for 15 min at room temperature. Absorbance at 540 nm was measured using a SYNERGY H1 Microplate Reader.

The test system of series [2] is LPS-induced IL-1β, TNF-α, IL-6, iNOS, IL-10 mRNA in BV-2 cells. Put plainly: qRT-PCR of proinflammatory and M1/M2 marker mRNAs in LPS-treated BV-2 cells. Format: cell-based. The conditions noted are these: BV-2 cells. How it is done: Total RNA was extracted from cells or mouse brains using the RNeasy Mini Kit. Isolated RNA was reverse-transcribed into cDNA using an RT2 Easy First Strand cDNA Synthesis Kit following the manufacturer's protocols. PCR amplification was conducted using synthetic primers, SYBR Green, and a TOptical Real-Time qPCR Thermal Cycler (Analytik Jena, Thuringia, Germany). The data were analyzed by the […] method, and Rpl711 or Rpl27 was used as an internal control.
For orientation: Quantitative PCR measures a nucleic acid by following its amplification.

Another series concerns morphine-dependent mice. Put plainly: Naloxone-precipitated morphine withdrawal jumps. Format: in vivo. The conditions noted are these: 2 μg/kg, 20 μg/kg, 0.2 mg/kg i.p. How it is done: Mice were intraperitoneally injected with an escalating dose of morphine three times daily for 3 days (5, 20, and 40 mg/kg) to induce addiction. On the fourth day, mice were given morphine (40 mg/kg) or vehicle (5 mL/kg). […] The withdrawal was precipitated by naloxone. Each mouse was placed into a transparent plastic box immediately, and the number of jumps was recorded for 15 min.

In the next series the test system is morphine-treated mice. Nature of the series: Morphine-induced behavioral sensitization. It is filed as in vivo. The conditions noted are these: 0.2 mg/kg i.p., mice. How it is done: Mice were placed into the test chamber (40×40×40 cm^3) for 60 min to habituate the chamber for three consecutive days. […] Locomotor activity was recorded daily for 60 min after the administration of drugs. Next, all the mice were subjected to a 7-day withdrawal period (days 8-14). Subsequently, mice were given morphine (5 mg/kg, i.p.), and locomotor activity was recorded to determine behavioral sensitization.

Series [3] in a line: Pharmacokinetic profiles in brain and plasma after oral administration. It is filed as in vivo, mice. The conditions noted are these: 10 mg/kg p.o. The protocol:
Following administration, mice (BALB/c, male, 20-25 g) were sacrificed at 0.5, 1, 2, 3, and 4 h. The blood and brain tissue were collected and extracted with acetonitrile.

In another series the target is T1, CB1 Receptor (Homo sapiens, UniProt P21554).
T1 construct: expressed in transfected cells; host or cells: GloSensor 22-F HEK293 cells
Nature of the series: cAMP measurement, forskolin-induced cAMP accumulation, CB1. Format: cell-based. How it is done: (§1) GloSensor 22-F HEK293 cells were transfected with plasmids encoding different receptors (CB1 and CB2). After 24 h, HEK293 cells were seeded at a density of 5×10^4 cells per well in 96-well plates and incubated for 8 h; then, the medium was removed, and 200 μL of serum-free DMEM medium containing 2% GloSensor cAMP substrate (Promega) was added. After 2 h incubation, the transfected cells were stimulated with different concentrations of ligands together with […]. The luminescence was recorded using a Multimode Plate Reader (En Vision, PerkinElmer).
On the technique in general: cAMP levels reflect the balance of adenylyl cyclase and phosphodiesterase activity.

The next series concerns the target T2, CB2 Receptor (Homo sapiens, UniProt P34972).
T2 construct: expressed in transfected cells; host or cells: GloSensor 22-F HEK293 cells
Nature of the series: cAMP measurement, forskolin-induced cAMP accumulation, CB2. It is filed as cell-based. How it is done:
as §1

A short description of series [4]: Pharmacokinetic profiles in brain and plasma after oral administration. It is filed as in vivo, mice. The conditions noted are these: male, BALB/c, mouse, 10 mg/kg p.o., read-out: B/P ratio.
Series [5] in a line: Respiratory rate determination. Format: in vivo, mice. Conditions: CIAC001 20 mg/kg i.p.; THC 10 mg/kg i.p. The protocol:
Mice were intraperitoneally injected with 20 mg/kg CIAC001 or 10 mg/kg THC once daily. After 1 h, the mice were anesthetized with isoflurane by a small animal anesthesia machine (R500IE, RWD Life Science Co) on day 2 and day 5. The respiratory rate of mice was recorded three times within 20 s. The weights of mice were recorded every day.

Series [6] can be described thus: Y-maze test of short-term memory. Format: in vivo, mice. The conditions noted are these: CIAC001 20 mg/kg i.p.; THC 10 mg/kg i.p. How it is done:
Mice were tested for short-term memory using a Y-maze task. Briefly, mice were placed into the Y-maze for 10 min once daily to habituate the apparatus for two consecutive days. After daily habituation, the mice were then treated with CIAC001 (20 mg/kg) or THC (10 mg/kg). On the 3rd day, mice were pretreated with CIAC001 or THC 45 min before the Y-maze test. Next, the “new arm” was blocked, and mice had 5 min to freely explore two arms (the “start arm” and the “old arm”, FIG. 8F). Mice were then removed from the Y-maze and placed into the cages for 2 min. During the test phase, mice were allowed to freely explore all three arms for 2 min, and the time spent in each arm was recorded and analyzed using the Noldus analyzing software. To eliminate olfactory interference, the Y-maze was wiped off with 70% alcohol after each test.

T2 sequence (P34972 whole entry): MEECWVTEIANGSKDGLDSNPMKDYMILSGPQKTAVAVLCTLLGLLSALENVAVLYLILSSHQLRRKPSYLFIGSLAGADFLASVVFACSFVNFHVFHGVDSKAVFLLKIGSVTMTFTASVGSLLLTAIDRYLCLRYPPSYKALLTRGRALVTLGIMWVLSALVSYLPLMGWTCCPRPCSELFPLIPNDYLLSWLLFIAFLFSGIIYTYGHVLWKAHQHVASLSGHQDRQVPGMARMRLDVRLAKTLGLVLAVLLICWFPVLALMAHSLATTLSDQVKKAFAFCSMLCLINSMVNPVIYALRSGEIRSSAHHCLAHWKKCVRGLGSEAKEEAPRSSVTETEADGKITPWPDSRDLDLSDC
T1 sequence (P21554 whole entry): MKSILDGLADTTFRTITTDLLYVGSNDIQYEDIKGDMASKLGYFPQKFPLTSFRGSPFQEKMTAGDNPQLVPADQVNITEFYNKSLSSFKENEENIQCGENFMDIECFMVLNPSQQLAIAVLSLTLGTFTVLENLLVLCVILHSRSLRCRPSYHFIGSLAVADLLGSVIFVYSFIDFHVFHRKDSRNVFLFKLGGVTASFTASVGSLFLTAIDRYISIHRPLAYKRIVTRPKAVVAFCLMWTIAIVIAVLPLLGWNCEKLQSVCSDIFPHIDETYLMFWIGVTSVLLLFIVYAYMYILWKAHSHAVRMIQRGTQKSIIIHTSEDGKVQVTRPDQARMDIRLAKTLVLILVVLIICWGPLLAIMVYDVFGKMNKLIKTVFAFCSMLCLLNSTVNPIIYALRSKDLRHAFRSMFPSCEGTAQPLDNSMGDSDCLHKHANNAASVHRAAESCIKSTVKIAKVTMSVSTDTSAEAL

In the case of `C=C(C)[C@@H]1CCC(C)=C[C@H]1c1c(O)cc(CCCCC)cc1O` [CBD, (1′R,2′R)-5′-Methyl-4-pentyl-2′-(prop-1-en-2-yl)-1′,2′,3′,4′-tetra-hydro-[1,1′-biphenyl]-2,6-diol, reference compound], the IC50 in [1] is 12.3 ± 3.1 µM. Further, the IC50 with BV-2 cellular viability was 8.5 ± 0.9 µM. In series [2], the “LPS-induced overexpression of IL-1β mRNA” value is given as “inhibited IL-1β overexpression only at 10 μM”, the “LPS-induced overexpression of IL-6 mRNA” value was “failed to inhibit” and the “LPS-induced overexpression of TNF-α mRNA” value is recorded as “failed to inhibit”. For the same molecule, the “LPS-induced IL-6 mRNA expression at 10 μM” value in series [2] (10 μM) was “augmented”. Besides, the naloxone-precipitated withdrawal jumps entry with morphine-dependent mice is “failed to significantly alleviate”. Also, the “development of morphine-induced behavioral sensitization (induction period)” value in the series on morphine-treated mice is “not obvious”. In addition, in series [3] (brain, mice), the AUC0→t was 66.7 ng·h/g, the “AUC0→∞” value was determined as 85.0 ng·h/g, the MRT came to 42 min and the Tmax was determined as 30 min. The t1/2 in series [3] (brain, mice) was 30 min. Moreover, the Kp in [3] (male, BALB/c, mouse, brain / plasma, oral, read-out: B/P ratios within the first 3 h after administration) was less than 1. Moreover, the Kp at 0.5 h in series [3] (male, BALB/c, mouse, brain / plasma, po, 0.5 h, read-out: B/P ratio) turned out to be 0.93 ± 0.176. Also, in series [3] (male, BALB/c, mouse, brain / plasma, po, 1 h, read-out: B/P ratio), the Kp at 1 h stood at 0.839 ± 0.144. Moreover, the “CB1 Receptor ΔEmax” value on CB1 Receptor (HEK293 transfected with CB1, forskolin-induced cAMP) is 13.3 ± 0.1%. In addition, at CB1 Receptor (cAMP assay), the “CB1 receptor activity” value is “slight CB1/CB2 receptor activity”. Besides, the “CB2 Receptor ΔEmax” value on CB2 Receptor (HEK293 transfected with CB2, forskolin-induced cAMP) is listed as 30.2 ± 0.9%. Besides, at CB2 Receptor (cAMP assay), the “CB2 receptor activity” value is “slight CB1/CB2 receptor activity”. Moreover, in [4] (0.083 h), the Kp at 0.083 h was found to be 0.864 ± 0.227. Moreover, the Kp at 0.25 h in series [4] (0.25 h) was determined as 0.358 ± 0.106.
In the case of `CCCCCc1cc(O)c2c(c1)OC(C)(C)[C@@H]1CCC(C)=C[C@@H]21` [THC, reference compound], the respiratory rate entry in series [5] is “Respiratory depression was found”. Moreover, the “time spent on the new arm (Y maze)” value in series [6] was “spent significantly less time on the new arm”.
